The values below come from PubChem BioAssay AID1259407 (Chemical Carcinogenesis Research Information System (CCRIS), 2018).

The source made the active and inactive calls. How the calls were made is not given here.

In the data set the test system is CCRIS mutagenicity, Ames/micronucleus/aberration tests. Description: CCRIS mutagenicity studies.
Where [1] appears, read: Test System: AMES SALMONELLA TYPHIMURIUM, Strain/Indicator: TA97, Metabolic Activation: NONE, Method: STANDARD PLATE.
Setting [2] is: Test System: AMES SALMONELLA TYPHIMURIUM, Strain/Indicator: TA97, Metabolic Activation: RAT, LIVER, S-9, AROCLOR 1254, Method: STANDARD PLATE.
[3] abbreviates: Test System: AMES SALMONELLA TYPHIMURIUM, Strain/Indicator: TA98, Metabolic Activation: NONE, Method: STANDARD PLATE.
Where [4] appears, read: Test System: AMES SALMONELLA TYPHIMURIUM, Strain/Indicator: TA98, Metabolic Activation: RAT, LIVER, S-9, AROCLOR 1254, Method: STANDARD PLATE.
Where [5] appears, read: Test System: AMES SALMONELLA TYPHIMURIUM, Strain/Indicator: TA100, Metabolic Activation: NONE, Method: STANDARD PLATE.
[6] abbreviates: Test System: AMES SALMONELLA TYPHIMURIUM, Strain/Indicator: TA100, Metabolic Activation: RAT, LIVER, S-9, AROCLOR 1254, Method: STANDARD PLATE.
[7] abbreviates: Test System: AMES SALMONELLA TYPHIMURIUM, Strain/Indicator: TA1535, Metabolic Activation: NONE, Method: STANDARD PLATE.
[8] abbreviates: Test System: AMES SALMONELLA TYPHIMURIUM, Strain/Indicator: TA1535, Metabolic Activation: RAT, LIVER, S-9, AROCLOR 1254, Method: STANDARD PLATE.
The mark [9] stands for this setting: Test System: AMES SALMONELLA TYPHIMURIUM, Strain/Indicator: TA1537, Metabolic Activation: NONE, Method: STANDARD PLATE.
Setting [10] is: Test System: AMES SALMONELLA TYPHIMURIUM, Strain/Indicator: TA1537, Metabolic Activation: RAT, LIVER, S-9, AROCLOR 1254, Method: STANDARD PLATE.
Setting [11] is: Test System: AMES SALMONELLA TYPHIMURIUM, Strain/Indicator: TA1538, Metabolic Activation: NONE, Method: STANDARD PLATE.
Setting [12] is: Test System: AMES SALMONELLA TYPHIMURIUM, Strain/Indicator: TA1538, Metabolic Activation: RAT, LIVER, S-9, AROCLOR 1254, Method: STANDARD PLATE.

As to `O=C1O[C@H]([C@@H](O)CO)C(O)=C1O`, the mutagenic call runs as follows: (End Point: IN VITRO CHROMOSOMAL ABERRATIONS, Test System: CHO CELLS, Metabolic Activation: RAT, LIVER, S-9, AROCLOR 1254) “inactive; negative”; (End Point: IN VITRO MICRONUCLEUS, Test System: CHINESE HAMSTER OVARY (CHO-K5), Metabolic Activation: NONE) “active; positive; no statistical analysis was performed”; (End Point: In vitro chromosomal aberrations, Test System: Chinese hamster lung CHL/IU cells, Metabolic Activation: None) “inactive; negative. toxicicity at highest dose”; (End Point: In vitro chromosomal aberrations, Test System: Chinese hamster ovary (CHO) cells, Metabolic Activation: None) “inactive; negative; vitamin c, alone or in combination with glutamine, reduced effect of d”; (End Point: In vitro chromosomal aberrations, Test System: Human peripheral blood lymphocytes, Metabolic Activation: None) “active; positive (structural changes); response at highest dose only”; (End Point: In vivo chromosomal aberrations, Test System: Bone marrow cells, Species: Rat, Strain/Sex: Wistar/Male and female, Route: Oral) “inactive; negative; vitamin c, alone or with glutamine, reduced effect of doxorubicin”. Besides, the mutagenic call (Test System: AMES SALMONELLA TYPHIMURIUM, Strain/Indicator: TA97, Metabolic Activation: HAMSTER, LIVER, S-9, AROCLOR 1254 (10 OR 30%), Method: PREINCUBATION) was “inactive; negative”; the mutagenic call (Test System: AMES SALMONELLA TYPHIMURIUM, Strain/Indicator: TA97, Metabolic Activation: NONE, Method: PREINCUBATION) was “inactive; negative”; the mutagenic call under setting [1] was “inactive; negative”; the mutagenic call (Test System: AMES SALMONELLA TYPHIMURIUM, Strain/Indicator: TA97, Metabolic Activation: RAT, LIVER, S-9, AROCLOR 1254 (10 OR 30%), Method: PREINCUBATION) is “inactive; negative”; the mutagenic call under setting [2] was “inactive; negative”; the mutagenic call (Test System: AMES SALMONELLA TYPHIMURIUM, Strain/Indicator: TA98, Metabolic Activation: HAMSTER, LIVER, S-9, AROCLOR 1254 (10 OR 30%), Method: PREINCUBATION) was “inactive; negative”. In addition, the mutagenic call runs as follows: (Test System: AMES SALMONELLA TYPHIMURIUM, Strain/Indicator: TA98, Metabolic Activation: NONE, Method: PREINCUBATION) “inactive; negative”; under setting [3], “inactive; negative”; (Test System: AMES SALMONELLA TYPHIMURIUM, Strain/Indicator: TA98, Metabolic Activation: RAT, LIVER, S-9, AROCLOR 1254 (10 OR 30%), Method: PREINCUBATION) “inactive; negative”; under setting [4], “inactive; negative”; (Test System: AMES SALMONELLA TYPHIMURIUM, Strain/Indicator: TA100, Metabolic Activation: HAMSTER, LIVER, S-9, AROCLOR 1254 (10 OR 30%), Method: PREINCUBATION) “inactive; negative”; (Test System: AMES SALMONELLA TYPHIMURIUM, Strain/Indicator: TA100, Metabolic Activation: NONE, Method: PREINCUBATION) “inactive; negative”. The mutagenic call reads like this: under setting [5], “inactive; negative”; (Test System: AMES SALMONELLA TYPHIMURIUM, Strain/Indicator: TA100, Metabolic Activation: RAT, LIVER, S-9, AROCLOR 1254 (10 OR 30%), Method: PREINCUBATION) “inactive; negative”; under setting [6], “inactive; negative”; (Test System: AMES SALMONELLA TYPHIMURIUM, Strain/Indicator: TA102, Metabolic Activation: NONE, Method: STANDARD PLATE) “inactive; negative”; (Test System: AMES SALMONELLA TYPHIMURIUM, Strain/Indicator: TA104, Metabolic Activation: NONE, Method: STANDARD PLATE) “inactive; negative”; (Test System: AMES SALMONELLA TYPHIMURIUM, Strain/Indicator: TA1535, Metabolic Activation: HAMSTER, LIVER, S-9, AROCLOR 1254 (10 OR 30%), Method: PREINCUBATION) “inactive; negative”. In addition, the mutagenic call reads like this: (Test System: AMES SALMONELLA TYPHIMURIUM, Strain/Indicator: TA1535, Metabolic Activation: NONE, Method: PREINCUBATION) “inactive; negative”; (Test System: AMES SALMONELLA TYPHIMURIUM, Strain/Indicator: TA1535, Metabolic Activation: RAT, LIVER, S-9, AROCLOR 1254 (10 OR 30%), Method: PREINCUBATION) “inactive; negative”; (Test System: AMES SALMONELLA TYPHIMURIUM, Strain/Indicator: TA1537, Metabolic Activation: HAMSTER, LIVER, S-9, AROCLOR 1254 (10 OR 30%), Method: PREINCUBATION) “inactive; negative”; (Test System: AMES SALMONELLA TYPHIMURIUM, Strain/Indicator: TA1537, Metabolic Activation: NONE, Method: PREINCUBATION) “inactive; negative”; (Test System: AMES SALMONELLA TYPHIMURIUM, Strain/Indicator: TA1537, Metabolic Activation: RAT, LIVER, S-9, AROCLOR 1254 (10 OR 30%), Method: PREINCUBATION) “inactive; negative”; (Test System: E. coli, Strain/Indicator: YG5190 (WP2 uvrA/pKM101 deficient in mutM gene), Metabolic Activation: None, Method: Preincubation) “inactive; negative. addition of sodium nitrite (100 ug/plate) increased mutagenic response”. The mutagenic call by setting is: (Test System: E. coli, Strain/Indicator: YG5190 (WP2 uvrA/pKM101 deficient in mutM gene), Metabolic Activation: S9, Method: Preincubation) “inactive; negative. addition of sodium nitrite (100 ug/plate) increased mutagenic response”; (Test System: HCT116 COLON CANCER CELLS, Strain/Indicator: HCT116 CELLS (HPRT)/6-THIOGUANINE, Metabolic Activation: NONE, Method: STANDARD PLATE) “inactive; negative”.
Turning to `Cc1ccc(N=Nc2ccc(N(CCO)CCO)cc2)cc1`, the mutagenic call is, setting by setting: (Test System: AMES SALMONELLA TYPHIMURIUM, Strain/Indicator: TA98, Metabolic Activation: HAMSTER, LIVER, S-9, AROCLOR 1254, Method: STANDARD PLATE) “inactive; negative”; under setting [3], “inactive; negative”; (Test System: AMES SALMONELLA TYPHIMURIUM, Strain/Indicator: TA98, Metabolic Activation: RAT, LIVER, S-9, AROCLOR 1254, Method: PREINCUBATION) “inactive; negative”; under setting [4], “inactive; negative”; under setting [5], “inactive; negative”; under setting [6], “inactive; negative”. Moreover, the mutagenic call runs as follows: under setting [7], “inactive; negative”; under setting [8], “inactive; negative”; under setting [9], “inactive; negative”; under setting [10], “inactive; negative”; under setting [11], “inactive; negative”; under setting [12], “inactive; negative”.
As to `CC(=O)Nc1ccc(OC(=O)c2ccccc2OC(C)=O)cc1`, the mutagenic call is, setting by setting: under setting [1], “inactive; negative”; under setting [2], “inactive; negative”; under setting [3], “inactive; negative”; under setting [4], “inactive; negative”; under setting [5], “inactive; negative”; under setting [6], “inactive; negative”. Also, the mutagenic call runs as follows: under setting [7], “inactive; negative”; under setting [8], “inactive; negative”; under setting [9], “inactive; negative”; under setting [10], “inactive; negative”; under setting [11], “inactive; negative”; under setting [12], “inactive; negative”.
`CC(=O)OCN(CCCCl)N=O`: the mutagenic call reads like this: (Test System: AMES SALMONELLA TYPHIMURIUM, Strain/Indicator: TA92, Metabolic Activation: NONE, Method: STANDARD PLATE) “active; positive”; under setting [7], “active; positive”.
Take `Cc1ccc2cc3c(ccc4ccccc43)c3c2c1CC3O` (centres undefined): the mutagenic call (Test System: CHINESE HAMSTER V-79, Strain/Indicator: V-79/8-AZAGUANINE, Metabolic Activation: RAT, LIVER, S-9, AROCLOR 1254, Method: STANDARD PLATE) is “active; positive”.
